Results: patent US9376425B2, “Heterocyclic compounds as MDM2 inhibitors for the treatment of cancer” (AMGEN INC., priority 2011, dated 2016)

Biological target: T1, human MDM2 (GST-hMDM2 aa 1-188), interaction with biotinylated-p53 (aa 1-83) (Homo sapiens, UniProt Q00987)
T1 construct: Amino acid residues 1-188 of human MDM2 were expressed; made in house; host or cells: Escherichia coli
Experiment: Homogenous Time-Resolved Fluorescence Assay (HTRF1 assay), inhibition of HDM2-p53 interaction
Assay type: binding
Settings: 2.5 nM GST-hMDM2, 5 nM biotinylated-p53, 200 mM KF
Experimental: Homogenous Time-Resolved Fluorescence Assay (HTRF1 Assay)
Residues 1-83 of human p53 were expressed as an amino-terminal AviTag™-TrxA-6xHis fusion protein (biotinylated p53) in E. coli. Each protein was purified from cell paste by affinity chromatography.
Specifically, 10 uL of GST-hMDM2 was incubated with 10 ul of diluted compound (various concentrations, serially diluted) in 10% DMSO for 20 minutes at room temperature. 20 uL of biotinylated-p53 was added to the GST-hMDM2+ compound mixture, and then incubated at room temperature for 60 min. 10 uL of detection buffer consisting of SA-XLent, anti-GST cryptate antibody and KF was added to GST-hMDM2, biotinylated-p53 and compound reaction and left at room temperature to reach equilibrium for >4 hrs. The final concentration of DMSO in the reaction was 2%. Time-resolved fluorescence readings were measured on a microplate multilabel reader. Percentage of inhibition was calculated relative to nutlin-3.

T1 sequence (Q00987 1-188): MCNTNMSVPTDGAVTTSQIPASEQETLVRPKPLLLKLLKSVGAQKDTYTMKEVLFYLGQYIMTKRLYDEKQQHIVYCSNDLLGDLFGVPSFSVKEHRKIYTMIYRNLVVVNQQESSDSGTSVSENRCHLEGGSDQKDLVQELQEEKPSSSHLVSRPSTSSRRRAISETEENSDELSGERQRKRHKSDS

| IC50 | SMILES |
| --- | --- |
| 39500 nM | Cn1c([C@@H]2[C@@H](c3cccc(Cl)c3)O[C@@H](CC(=O)O)C(=O)N2CC2CC2)nc2ccccc21 (racemic) [Example 5, 2-((2S,5R,6R)-6-(3-Chlorophenyl)-4-(cyclopropylmethyl)-5-(1-methyl-1H-benzo[d]imidazol-2-yl)-3-oxomorpholin-2-yl)acetic acid and 2-((2R,5S,6S)-6-(3-Chlorophenyl)-4-(cyclopropylmethyl)-5-(1-methyl-1H-benzo[d]imidazol-2-yl)-3-oxomorpholin-2-yl)acetic acid] |
| 1100 nM | O=C(O)C[C@@H]1O[C@H](c2cccc(Cl)c2)[C@@H](c2ccc(Cl)cn2)N(CC2CC2)C1=O (single isomer, unassigned) [Example 7] |
| 1600 nM | O=C(O)C[C@H]1OC(c2cccc(Cl)c2)[C@@H](c2ccc(Cl)cn2)N(CC2CC2)C1=O (single isomer, unassigned) [Example 8] |
| 1800 nM | CC[C@H](C(=O)OC(C)(C)C)N1C(=O)[C@H](CC(=O)O)O[C@H](c2cccc(Cl)c2)[C@H]1c1ccc(Cl)cc1 (single isomer, unassigned) [Example 30] |
| 100 nM | CC[C@@H](C(=O)OC(C)(C)C)N1C(=O)[C@H](CC(=O)O)O[C@H](c2cccc(Cl)c2)[C@H]1c1ccc(Cl)cc1 (single isomer, unassigned) [Example 31] |
| 100 nM | CC[C@@H](C(=O)OC(C)(C)C)N1C(=O)[C@@H](CC(=O)O)O[C@H](c2cccc(Cl)c2)[C@H]1c1ccc(Cl)cc1 (single isomer, unassigned) [Example 32] |
| 1100 nM | CC[C@H](C(=O)OC(C)(C)C)N1C(=O)[C@@H](CC(=O)O)O[C@H](c2cccc(Cl)c2)[C@H]1c1ccc(Cl)cc1 (single isomer, unassigned) [Example 33] |
| 900 nM | O=C(O)C[C@H]1O[C@H](c2cccc(Cl)c2)[C@@H](c2ccc(Cl)cc2F)N(CC2CC2)C1=O (single isomer, unassigned) [Example 62] |
| 17500 nM | O=C(O)CC1O[C@H](c2cccc(Cl)c2)[C@@H](c2ccc(Br)cc2)N(CC2CC2)C1=O (single isomer, unassigned) [Example 67] |
| 14200 nM | O=C(O)CC1O[C@H](c2cccc(Cl)c2)[C@@H](c2ccc(Br)cc2)N(CC2CC2)C1=O (single isomer, unassigned) [Example 68] |
| 3100 nM | O=C(O)CC1O[C@H](c2cccc(Cl)c2)[C@@H](c2ccc(Cl)nc2)N(CC2CC2)C1=O (single isomer, unassigned) [Example 71] |
| 1500 nM | O=C(O)CC1O[C@H](c2cccc(Cl)c2)[C@@H](c2ccc(Cl)nc2)N(CC2CC2)C1=O (single isomer, unassigned) [Example 72] |
| 11600 nM | COc1ccc([C@@H]2[C@@H](c3cccc(Cl)c3)OC(CC(=O)O)C(=O)N2CC2CC2)cn1 (single isomer, unassigned) [Example 73] |
| 4500 nM | COc1ccc([C@@H]2[C@@H](c3cccc(Cl)c3)OC(CC(=O)O)C(=O)N2CC2CC2)cn1 (single isomer, unassigned) [Example 74] |
| 3700 nM | COc1ccc([C@@H]2[C@@H](c3cccc(Cl)c3)OC(CC(=O)O)C(=O)N2CC2CC2)cc1 (single isomer, unassigned) [Example 75] |
| 1400 nM | COc1ccc([C@@H]2[C@@H](c3cccc(Cl)c3)OC(CC(=O)O)C(=O)N2CC2CC2)cc1 (single isomer, unassigned) [Example 76] |
| 300 nM | O=C(O)CC1O[C@H](c2cccc(Cl)c2)[C@@H](c2ccc(Cl)c(F)c2)N(CC2CC2)C1=O (single isomer, unassigned) [Example 77] |
| 800 nM | O=C(O)CC1O[C@H](c2cccc(Cl)c2)[C@@H](c2ccc(Cl)c(F)c2)N(CC2CC2)C1=O (single isomer, unassigned) [Example 78] |
| 70200 nM | O=C(O)CC1O[C@H](c2cccc(Cl)c2)[C@@H](c2ccc(Cl)cc2Br)N(CC2CC2)C1=O (single isomer, unassigned) [Example 79] |

| IC50 | SMILES |
| --- | --- |
| 14800 nM | O=C(O)CC1O[C@H](c2cccc(Cl)c2)[C@@H](c2ccc(Cl)cc2Br)N(CC2CC2)C1=O (single isomer, unassigned) [Example 80] |
| 15700 nM | O=C(O)CC1O[C@H](c2cccc(Cl)c2)[C@@H](c2ccc(C(F)(F)F)nc2)N(CC2CC2)C1=O (single isomer, unassigned) [Example 81] |
| 30000 nM | O=C(O)CC1O[C@H](c2cccc(Cl)c2)[C@@H](c2ccc(C(F)(F)F)nc2)N(CC2CC2)C1=O (single isomer, unassigned) [Example 82] |
| 300 nM | O=C(O)CC1O[C@H](c2cc(F)cc(Cl)c2)[C@@H](c2ccc(Cl)cc2)N(CC2CC2)C1=O (single isomer, unassigned) [Example 83] |
| 300 nM | O=C(O)CC1O[C@H](c2cc(F)cc(Cl)c2)[C@@H](c2ccc(Cl)cc2)N(CC2CC2)C1=O (single isomer, unassigned) [Example 84] |
| 1600 nM | O=C(O)CC1O[C@H](c2cccc(F)c2)[C@@H](c2ccc(Cl)cc2)N(CC2CC2)C1=O (single isomer, unassigned) [Example 85] |
| 800 nM | O=C(O)CC1O[C@H](c2cccc(F)c2)[C@@H](c2ccc(Cl)cc2)N(CC2CC2)C1=O (single isomer, unassigned) [Example 86] |
| 1800 nM | O=C(O)CC1O[C@H](c2cncc(Cl)c2)[C@@H](c2ccc(Cl)cc2)N(CC2CC2)C1=O (single isomer, unassigned) [Example 87] |
| 2100 nM | O=C(O)CC1O[C@H](c2cncc(Cl)c2)[C@@H](c2ccc(Cl)cc2)N(CC2CC2)C1=O (single isomer, unassigned) [Example 88] |
| 6100 nM | COc1cccc([C@H]2OC(CC(=O)O)C(=O)N(CC3CC3)[C@@H]2c2ccc(Cl)cc2)c1 (single isomer, unassigned) [Example 89] |
| 3500 nM | COc1cccc([C@H]2OC(CC(=O)O)C(=O)N(CC3CC3)[C@@H]2c2ccc(Cl)cc2)c1 (single isomer, unassigned) [Example 90] |
| 600 nM | O=C(O)CC1O[C@H](c2ccnc(Cl)c2)[C@@H](c2ccc(Cl)cc2)N(CC2CC2)C1=O (single isomer, unassigned) [Example 91] |
| 19500 nM | COc1cncc([C@H]2OC(CC(=O)O)C(=O)N(CC3CC3)[C@@H]2c2ccc(Cl)cc2)c1 (single isomer, unassigned) [Example 92] |
| 300 nM | O=C(O)CC1O[C@H](c2cc(Cl)cc(Cl)c2)[C@@H](c2ccc(Cl)cc2)N(CC2CC2)C1=O (single isomer, unassigned) [Example 93] |
| 600 nM | O=C(O)CC1O[C@H](c2ccc(F)c(Cl)c2)[C@@H](c2ccc(Cl)cc2)N(CC2CC2)C1=O (single isomer, unassigned) [Example 94] |
| 33500 nM | O=C(O)CC1O[C@H](c2cccc(OC(F)(F)F)c2)[C@@H](c2ccc(Cl)cc2)N(CC2CC2)C1=O (single isomer, unassigned) [Example 95] |
| 1100 nM | O=C(O)CC1O[C@H](c2cc(F)cc(F)c2)[C@@H](c2ccc(Cl)cc2)N(CC2CC2)C1=O (single isomer, unassigned) [Example 96] |
| 500 nM | O=C(O)CC1O[C@H](c2cc(F)cc(F)c2)[C@@H](c2ccc(Cl)cc2)N(CC2CC2)C1=O (single isomer, unassigned) [Example 97] |

| SMILES | IC50 |
| --- | --- |
| O=C(O)C[C@H]1O[C@H](c2cccc(Cl)c2)[C@@H](c2cc3ccccc3[nH]2)N(CC2CC2)C1=O (single isomer, unassigned) [Example 1, 2-((2R,5R,6R)-6-(3-Chlorophenyl)-4-(cyclopropylmethyl)-5-(1H-indol-2-yl)-3-oxomorpholin-2-yl)acetic acid or 2-((2S,5R,6R)-6-(3-Chlorophenyl)-4-(cyclopropylmethyl)-5-(1H-indol-2-yl)-3-oxomorpholin-2-yl)acetic acid] | 33400 nM |
| O=C(O)C[C@@H]1O[C@H](c2cccc(Cl)c2)[C@@H](c2cc3ccccc3[nH]2)N(CC2CC2)C1=O (single isomer, unassigned) [Example 2, 2-((2S,5R,6R)-6-(3-Chlorophenyl)-4-(cyclopropylmethyl)-5-(1H-indol-2-yl)-3-oxomorpholin-2-yl)acetic acid or 2-((2R,5R,6R)-6-(3-Chlorophenyl)-4-(cyclopropylmethyl)-5-(1H-indol-2-yl)-3-oxomorpholin-2-yl)acetic acid] | 31400 nM |
| C[C@H](C1CCCCC1)N1C(=O)[C@H](CC(=O)O)O[C@H](c2cccc(Cl)c2)[C@H]1c1ccc(Cl)cc1 (single isomer, unassigned) [Example 18, 2-((2S,5R,6R)-6-(3-chlorophenyl)-5-(4-chlorophenyl)-4-((R)-1-cyclohexylethyl)-3-oxomorpholin-2-yl)acetic acid or 2-((2S,5R,6R)-6-(3-Chlorophenyl)-5-(4-chlorophenyl)-4-((S)-1-cyclohexylethyl)-3-oxomorpholin-2-yl)acetic acid] | 100 nM |
| C[C@@H](C1CCCCC1)N1C(=O)[C@H](CC(=O)O)O[C@H](c2cccc(Cl)c2)[C@H]1c1ccc(Cl)cc1 (single isomer, unassigned) [Example 19, 2-((2S,5R,6R)-6-(3-chlorophenyl)-5-(4-chlorophenyl)-4-((S)-1-cyclohexylethyl)-3-oxomorpholin-2-yl)acetic acid or 2-((2S,5R,6R)-6-(3-chlorophenyl)-5-(4-chlorophenyl)-4-((R)-1-cyclohexylethyl)-3-oxomorpholin-2-yl)acetic acid] | 600 nM |
